Assay [1] has as its system dural inflammation model of migraine. The experiment in a line: Dural inflammation rat model of migraine. Particulars: rats, 3 mg/kg p.o., about 15 min pre-IS, measured up to 6 hours post IS. It is filed as in vivo. On the procedure: These features mimic the characteristic often seen in migraineurs during a headache, especially when treatment is delayed, and the development of central sensitization has occurred (Burstein et al., Ann. Neurol. 47:614-624, 2000; Burstein et al., Brain, 123:1703-1709, 2000). Compound (8) was tested in a dural inflammation model of migraine according to previously described procedures (WO 2007/120830 or as described in US-2008-0031822-A1). Baseline paw withdrawal thresholds were recorded approximately 30 min before the IS administration by application of calibrated von Frey filaments to the hindpaws to measure tactile allodynia. Approximately 15 minutes pre-IS administration, the test compound in water was administered by oral gavage (1 mL/kg) at a dose of 3 mg/kg per os (p.o.). Measurements of tactile allodynia were recorded at 1 hour intervals up to 6 hours post IS administration.

Assay [2] concerns the target Nitric oxide synthase (endothelial, human recombinant) eNOS (Homo sapiens (Human), UniProt P29474). The assay can be described thus: Human eNOS enzyme assay ([3H]-L-arginine to L-citrulline conversion). In kind it is biochemical.
In assay [3] the target is Nitric oxide synthase (neuronal, human recombinant) nNOS (Homo sapiens (Human), UniProt P29475). The experiment in a line: Human nNOS enzyme assay ([3H]-L-arginine to L-citrulline conversion). It is filed as biochemical.

For `CNCCN1CCSc2cc(NC(=N)c3cccs3)ccc21` [Compound 8, N-(4-(2-(methylamino)ethyl)-3,4-dihydro-2H-benzo[b][1,4]thiazin-7-yl)thiophene-2-carboximidamide], in assay [1], the “antiallodynic effect (tactile allodynia, hindpaw)” value was “antiallodynic effect”. In addition, the IC50 (usually the concentration that inhibits the measured activity by half) came to 33.5 µM in assay [2] and 0.06 µM in assay [3] (recombinant human nNOS). For the same compound, the “Selectivity eNOS/nNOS” value in assay [3] (ratio of human eNOS IC50 to human nNOS IC50) amounted to 531.

(Values after US8618286B2, “Benzoxazines, benzothiazines, and related compounds having NOS inhibitory activity” (NeurAxon, Inc., priority 2008, dated 2013).)
